According to the RepoRT retention time repository (doi:10.1007/s00216-021-03828-0):

Legend:
Conditions in all cases: stereoisomer not certain
[1] = RP, Merck Supelco Ascentis Express C18, 100 × 2.1 mm, 2 µm, 40 °C, 0.25 mL/min, estimated dead time 0.88 min; A: water + 0.1% formic acid, pH 3; B: acetonitrile + 0.1% formic acid, pH 3; gradient (min/%B) 0/5 2/5 17/99.9 20/99.9
[2] = RP, Merck Supelco Ascentis Express C18, 100 × 2.1 mm, 2 µm, 40 °C, 0.2 mL/min, estimated dead time 1.1 min; A: water + 0.1% formic acid, pH 3; B: acetonitrile + 0.1% formic acid, pH 3; gradient (min/%B) 0/5 2/5 17/99.9 20/99.9
[3] = RP, Merck Supelco Ascentis Express C18, 100 × 2.1 mm, 2 µm, 40 °C, 0.35 mL/min, estimated dead time 0.63 min; A: water + 0.1% formic acid, pH 3; B: acetonitrile + 0.1% formic acid, pH 3; gradient (min/%B) 0/5 2/5 17/99.9 20/99.9
[4] = RP, Merck Supelco Ascentis Express C18, 100 × 2.1 mm, 2 µm, 40 °C, 0.2 mL/min, estimated dead time 1.1 min; A: water + 0.1% formic acid, pH 3; B: acetonitrile + 0.1% formic acid, pH 3; gradient (min/%B) 0/5 2/5 17/99.9 20/99.9; remark: listed apart in the source
[5] = RP, Merck Supelco Ascentis Express C18, 100 × 2.1 mm, 2 µm, 40 °C, 0.4 mL/min, estimated dead time 0.55 min; A: water + 0.1% formic acid, pH 3; B: acetonitrile + 0.1% formic acid, pH 3; gradient (min/%B) 0/5 2/5 17/99.9 20/99.9
[6] = RP, Merck Supelco Ascentis Express C18, 100 × 2.1 mm, 2 µm, 39 °C, 0.3 mL/min, estimated dead time 0.73 min; A: water + 0.1% formic acid, pH 3; B: acetonitrile + 0.1% formic acid, pH 3; gradient (min/%B) 0/5 2/5 17/99.9 20/99.9
[7] = RP, Merck Supelco Ascentis Express C18, 100 × 2.1 mm, 2 µm, 40 °C, 0.4 mL/min, estimated dead time 0.55 min; A: water + 0.1% formic acid, pH 3; B: acetonitrile + 0.1% formic acid, pH 3; gradient (min/%B) 0/5 2/5 17/99.9 20/99.9; remark: listed apart in the source

Q: For `N[C@@H](Cc1ccc(O)c([N+](=O)[O-])c1)C(=O)O` [3-NITRO-L-TYROSINE], which LC retention time [1] is on record?
A: Its LC retention time is 2.14 min.

Q: And the LC retention time [2]?
A: The LC retention time was 2.72 min.

Q: What about the LC retention time [3] of the same compound?
A: The LC retention time was 1.56 min.

Q: What about the LC retention time [4] of the same compound?
A: The LC retention time was 2.7 min.

Q: What about the LC retention time [5] of the same compound?
A: Its LC retention time is 1.35 min.

Q: And the LC retention time [6]?
A: The LC retention time was 1.78 min.

Q: What about the LC retention time [7] of the same compound?
A: The LC retention time was 1.35 min.

Q: What does the source list for `CC(=O)NCCCC(=O)O` [4-ACETAMIDOBUTANOATE]?
A: LC retention time [1]: 1.29 min; LC retention time [2]: 1.63 min; LC retention time [3]: 0.923 min; LC retention time [4]: 1.63 min; LC retention time [5]: 0.783 min; LC retention time [6]: 1.07 min; LC retention time [7]: 0.8 min

Q: With `O=C(O)C=Cc1ccc(O)cc1` [4-COUMARATE] as the compound, how does the LC retention time [1] read?
A: The LC retention time was 5.68 min.

Q: What about the LC retention time [2] of the same compound?
A: The LC retention time was 6.25 min.

Q: And the LC retention time [3]?
A: Its LC retention time is 4.94 min.

Q: What about the LC retention time [4] of the same compound?
A: The LC retention time was 6.26 min.

Q: And the LC retention time [5]?
A: The LC retention time was 4.64 min.

Q: And the LC retention time [6]?
A: The LC retention time was 5.3 min.

Q: What about the LC retention time [7] of the same compound?
A: Its LC retention time is 4.68 min.

Q: Which results are given for `O=Cc1ccc(O)cc1` [4-HYDROXYBENZALDEHYDE]?
A: LC retention time [1]: 4.82 min; LC retention time [2]: 5.46 min; LC retention time [3]: 3.94 min; LC retention time [4]: 5.47 min; LC retention time [5]: 3.59 min; LC retention time [6]: 4.34 min; LC retention time [7]: 3.64 min

Q: With `O=C(O)c1ccc(O)cc1` [4-HYDROXYBENZOATE] as the compound, how does the LC retention time [1] read?
A: The LC retention time was 3.91 min.

Q: What about the LC retention time [2] of the same compound?
A: Its LC retention time is 4.53 min.

Q: And the LC retention time [3]?
A: The LC retention time was 2.94 min.

Q: And the LC retention time [4]?
A: Its LC retention time is 4.53 min.

Q: What about the LC retention time [5] of the same compound?
A: The LC retention time was 2.54 min.

Q: What about the LC retention time [6] of the same compound?
A: The LC retention time was 3.42 min.

Q: And the LC retention time [7]?
A: Its LC retention time is 2.59 min.

Q: For `Cc1ncc(CO)c(C(=O)O)c1O` [4-PYRIDOXATE], which LC retention time [1] is on record?
A: Its LC retention time is 1.23 min.

Q: And the LC retention time [2]?
A: Its LC retention time is 1.57 min.

Q: What about the LC retention time [3] of the same compound?
A: The LC retention time was 0.877 min.

Q: What about the LC retention time [4] of the same compound?
A: Its LC retention time is 1.57 min.

Q: What about the LC retention time [5] of the same compound?
A: The LC retention time was 0.757 min.

Q: What about the LC retention time [6] of the same compound?
A: Its LC retention time is 1.02 min.

Q: And the LC retention time [7]?
A: The LC retention time was 0.767 min.

Q: With `O=C(O)c1ccnc2ccccc12` [4-QUINOLINECARBOXYLATE] as the compound, how does the LC retention time [1] read?
A: Its LC retention time is 1.26 min.

Q: What about the LC retention time [2] of the same compound?
A: The LC retention time was 1.6 min.

Q: And the LC retention time [3]?
A: The LC retention time was 0.88 min.

Q: And the LC retention time [4]?
A: The LC retention time was 1.57 min.

Q: What about the LC retention time [5] of the same compound?
A: The LC retention time was 0.763 min.

Q: And the LC retention time [6]?
A: The LC retention time was 1.04 min.

Q: And the LC retention time [7]?
A: Its LC retention time is 0.773 min.

Q: With `NCC(=O)CCC(=O)O` [5-AMINOLEVULINATE] as the compound, how does the LC retention time [2] read?
A: The LC retention time was 1.53 min.

Q: What about the LC retention time [3] of the same compound?
A: Its LC retention time is 0.853 min.

Q: What about the LC retention time [4] of the same compound?
A: Its LC retention time is 1.51 min.

Q: What about the LC retention time [5] of the same compound?
A: Its LC retention time is 0.74 min.

Q: And the LC retention time [6]?
A: Its LC retention time is 1.01 min.

Q: What about the LC retention time [7] of the same compound?
A: The LC retention time was 0.737 min.

Q: With `CCCCCCCCC=CCCCCCCCC(=O)O` [ELAIDATE] as the compound, how does the LC retention time [2] read?
A: The LC retention time was 18.1 min.

Q: What about the LC retention time [3] of the same compound?
A: Its LC retention time is 16.4 min.

Q: What about the LC retention time [4] of the same compound?
A: The LC retention time was 18.2 min.

Q: What about the LC retention time [5] of the same compound?
A: Its LC retention time is 16 min.

Q: And the LC retention time [6]?
A: Its LC retention time is 16.8 min.

Q: And the LC retention time [7]?
A: The LC retention time was 16.1 min.

Q: Which LC retention time [1] does the source give for `CCCCCCCCCCCCCCCCC(=O)O` [HEPTADECANOATE] here?
A: Its LC retention time is 17.7 min.

Q: What about the LC retention time [3] of the same compound?
A: The LC retention time was 16.7 min.

Q: What about the LC retention time [4] of the same compound?
A: The LC retention time was 18.5 min.

Q: And the LC retention time [5]?
A: The LC retention time was 16.3 min.

Q: What about the LC retention time [7] of the same compound?
A: Its LC retention time is 16.4 min.

Q: Which LC retention time [1] does the source give for `O=C(O)Cc1c[nH]c2ccccc12` [INDOLE-3-ACETATE] here?
A: Its LC retention time is 6.63 min.

Q: And the LC retention time [2]?
A: Its LC retention time is 7.21 min.

Q: What about the LC retention time [3] of the same compound?
A: The LC retention time was 5.84 min.

Q: What about the LC retention time [5] of the same compound?
A: The LC retention time was 5.56 min.

Q: What about the LC retention time [6] of the same compound?
A: Its LC retention time is 6.2 min.

Q: What about the LC retention time [7] of the same compound?
A: Its LC retention time is 5.6 min.

Q: Which results are given for `COC(=O)Cc1c[nH]c2ccccc12` [INDOLE-3-METHYL ACETATE]?
A: LC retention time [1]: 8.62 min; LC retention time [3]: 8.75 min; LC retention time [4]: 10.2 min; LC retention time [5]: 8.4 min; LC retention time [6]: 8.12 min; LC retention time [7]: 7.46 min

Q: What does the source list for `CC(C(=O)O)C(=O)O` [METHYLMALONATE]?
A: LC retention time [1]: 1.37 min; LC retention time [3]: 0.957 min; LC retention time [4]: 1.71 min; LC retention time [5]: 0.807 min; LC retention time [7]: 0.863 min

Q: Which results are given for `CC(O)(CCO)CC(=O)[O-]` (stereo unspecified) [MEVALONATE]?
A: LC retention time [1]: 1.2 min; LC retention time [2]: 1.57 min; LC retention time [3]: 0.863 min; LC retention time [4]: 1.55 min; LC retention time [5]: 0.73 min; LC retention time [7]: 0.72 min

Q: For `O=C([O-])Cc1ccccc1` [PHENYLACETATE], which LC retention time [1] is on record?
A: Its LC retention time is 3.45 min.

Q: What about the LC retention time [3] of the same compound?
A: Its LC retention time is 4.56 min.

Q: What about the LC retention time [4] of the same compound?
A: The LC retention time was 4.08 min.

Q: And the LC retention time [5]?
A: The LC retention time was 3.93 min.

Q: What about the LC retention time [6] of the same compound?
A: The LC retention time was 4.5 min.

Q: And the LC retention time [7]?
A: The LC retention time was 3.95 min.

Q: What does the source list for `C[Se]CCC(N)C(=O)O` (stereo unspecified) [SELENOMETHIONINE]?
A: LC retention time [1]: 1.07 min; LC retention time [2]: 1.37 min; LC retention time [3]: 0.763 min; LC retention time [4]: 1.37 min; LC retention time [5]: 0.683 min; LC retention time [6]: 0.887 min

Q: What does the source list for `CCCCCCCCCCCCCCCCCC(=O)[O-]` [STEARATE]?
A: LC retention time [1]: 18.3 min; LC retention time [3]: 17.2 min; LC retention time [4]: 19.1 min; LC retention time [5]: 16.9 min; LC retention time [7]: 16.9 min
